Source: patent US11739385B2, “Discovery of a somatic mutation in MYD88 gene in lymphoplasmacytic lymphoma” (Dana-Farber Cancer Institute, Inc., priority 2011, dated 2023)
Read-outs that look alike come from different tables or passages of the source.

Legend:
[1] = system: MYD88 L265P expressing WM cells; assay: Apoptosis analysis by Annexin V and PI staining; assay type: cell-based; conditions: BCWM.1 and MWCL-1 WM cells which possess the MYD88 L265P mutation
Method: Western blot analysis was performed using total and phospho-specific antibodies in MYD88 L265P expressing WM cells, BCWM.1 and MCWL-1 following MYD88 knockdown by lentiviral transduction, and/or use of MYD88 or IRAK signal inhibitors. […] Annexin V/PI staining was used to assess cell survival, and synergism assessed with CalcuSyn software.

[2] = system: NF-κB signaling; conditions: L265P expressing ABC DLBCL cell lines; cited from earlier work
[3] = system: NF-κB signaling; assay: NF-κB signaling in BCWM.1 and MWCL-1 WM cells; assay type: cell-based; conditions: BCWM.1 and MWCL-1 WM cells which possess the MYD88 L265P mutation

O=C(Nc1nc2ccccc2n1CCN1CCOCC1)c1cccc([N+](=O)[O-])c1 [IRAK1/4 inhibitor, N-(2-Morpholinylethyl)-2-(3-nitrobenzoylamido)-benzimidazole]
apoptosis [1]: enhanced apoptosis
NF-κB signaling [2]: loss of NF-κB signaling
NF-κB signaling [3]: loss of NF-κB signaling
